According to patent publication EP3290412A1, “HIV-1 NUCLEOCAPSID INHIBITORS” (Università degli Studi di Siena, priority 2016, dated 2018):

What was measured:
Assay type in all cases: cell-based
[1] = system: HIV-1 reference strain NL4-3; test: MonoCycle assay (TZM-bl cells); conditions: Human immunodeficiency virus 1, NL43, TZM-bl, 48 h, read-out: Mono Cycle IC50 nM
Summary of the method: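 TZM-bl cells (20,000/well) were infected with NL4-3 in the presence of five-fold serial inhibitor dilutions. After 48 h, cells were lysed and luciferase luminescence (RLU) was counted. IC50 was derived from the RLU data.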

[2] = system: HIV-1 reference strain NL4-3; test: BiCycle assay (MT-2 then TZM-bl cells); conditions: Human immunodeficiency virus 1, NL43, TZM-bl, read-out: BiCycle IC50 nM
Summary of the method: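 MT-2 cells were infected with NL4-3 in the presence of five-fold compound dilutions. After 72 h, the supernatant was passed to TZM-bl cells. Two days later, luciferase luminescence was read and IC50 calculated, giving a readout that spans the whole replication cycle.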

[3] = system: Peripheral blood mononuclear cells (PBMC); conditions: human, 7 days
Summary of the method: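 Healthy-donor PBMC stimulated 2 days with 5 µg/mL PHA, then seeded at 1x10^5 cells/well in medium with 20 IU/mL IL-2 and exposed to compound for 7 days. Viability measured by MTS (4 h, OD 490 nm). TD50 interpolated from dose versus percent mortality relative to untreated cells.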

| SMILES | IC50 [1] | IC50 [2] | Proliferation assay PBMC TD50 [3] |
| --- | --- | --- | --- |
| COc1ccnc(-c2nc(O)c(O)c(C(=O)NC3CCC(C)(C)CC3)n2)c1 [Compound 77, N-(4,4-dimethylcyclohexyl)-5,6-dihydroxy-2-(4-methoxypyridin-2-yl)pyrimidine-4-carboxamide] | 17300 nM | 1170 nM | 2200 nM |
| C[C@H](NC(=O)c1nc(-c2cc(Cl)ccn2)nc(O)c1O)C1CCCCC1 [Compound 78, (S)-2-(4-chloropyridin-2-yl)-N-(1-cyclohexylethyl)-5,6-dihydroxypyrimidine-4-carboxamide] | 8740 nM | 285 nM | 1900 nM |
| Cc1ccnc(-c2nc(O)c(O)c(C(=O)N[C@@H](C)C3CCCCC3)n2)c1 [Compound 79, (S)-N-(1-cyclohexylethyl)-5,6-dihydroxy-2-(4-methylpyridin-2-yl)pyrimidine-4-carboxamide] | 2350 nM | 178 nM | 2300 nM |
| C[C@H](NC(=O)c1nc(-c2nccc3ccccc23)nc(O)c1O)C1CCCCC1 [Compound 80, (S)-N-(1-cyclohexylethyl)-5,6-dihydroxy-2-(isoquinolin-1-yl)pyrimidine-4-carboxamide] | 2850 nM | 144 nM | 2000 nM |
| C[C@H](NC(=O)c1nc(-c2ccc(N)cn2)nc(O)c1O)C1CCCCC1 [Compound 81, (S)-2-(5-aminopyridin-2-yl)-N-(1-cyclohexylethyl)-5,6-dihydroxypyrimidine-4-carboxamide] | 2290 nM | 222 nM | 1400 nM |
| CC(NC(=O)c1nc(-c2cc(Cl)ccn2)nc(O)c1O)C1CCC(F)(F)CC1 (stereo not drawn) [Compound 87, 2-(4-chloropyridin-2-yl)-N-(1-(4,4-difluorocyclohexyl)ethyl)-5,6-dihydroxypyrimidine-4-carboxamide] | > 50000 nM | 1830 nM | 3220 nM |
| C[C@@H](NC(=O)c1nc(-c2cc(CCN)ccn2)nc(O)c1O)C1CCCCC1 [Compound 88, (R)-2-(4-(2-aminoethyl)pyridin-2-yl)-N-(1-cyclohexylethyl)-5,6-dihydroxypyrimidine-4-carboxamide] | > 50000 nM | 12700 nM | 3250 nM |
| CCNS(=O)(=O)c1ccc(-c2nc(O)c(O)c(C(=O)N[C@H](C)C3CCCCC3)n2)nc1 [Compound 89, (R)-N-(1-cyclohexylethyl)-2-(5-(N-ethylsulfamoyl)pyridin-2-yl)-5,6-dihydroxypyrimidine-4-carboxamide] | > 50000 nM | 10400 nM | 3290 nM |
| C[C@@H](NC(=O)c1nc(-c2cc(CCNCc3cccn3C)ccn2)nc(O)c1O)C1CCCCC1 [Compound 91, (R)-N-(1-cyclohexylethyl)-5,6-dihydroxy-2-(4-(2-(((1-methyl-1H-pyrrol-2-yl)methyl)amino)ethyl)pyridin-2-yl)pyrimidine-4-carboxamide] | 2150 nM | 1100 nM | 1090 nM |
| C[C@@H](NC(=O)c1nc(-c2cc(CCN(C)C)ccn2)nc(O)c1O)C1CCCCC1 [Compound 92, (R)-N-(1-cyclohexylethyl)-2-(4-(2-(dimethylamino)ethyl)pyridin-2-yl)-5,6-dihydroxypyrimidine-4-carboxamide] | 6120 nM | 1400 nM | 2020 nM |
| C[C@@H](NC(=O)c1nc(-c2ccc(CN3CCCC3)cn2)nc(O)c1O)C1CCCCC1 [Compound 93, (R)-N-(1-cyclohexylethyl)-5,6-dihydroxy-2-(5-(pyrrolidin-1-ylmethyl)pyridin-2-yl)pyrimidine-4-carboxamide] | > 50000 nM | 1360 nM | 1870 nM |
